Read-outs that look alike come from different tables or passages of the source.
Experiments:
primary HIV isolates = conditions: cited from earlier work
[1] = test system: CXCR4 dependent primary and lab-adapted HIV viruses; conditions: cited from earlier work
CCCKR5 = target: T1, CCCKR5 (Homo sapiens, UniProt P51681); conditions: transfected CHO-K1 cells; cited from earlier work
T1 construct: expressed in transfected cells; host or cells: CHO-K1 (stably transfected)

[2] = test system: primary, nonsyncytium-inducing (NSI) HIV-1 strains; conditions: primary NSI HIV-1 strains; cited from earlier work
[3] = test system: env-mediated cell-cell fusion; conditions: cited from earlier work
CCR5 [4] = target: T2, CCR5 (Homo sapiens, UniProt P51681); assay: Dissociation constant of the CCR5/gp120 interaction, applicant's work with recombinant proteins; assay type: binding
T2 construct: antagonist of CCR5 function in monocytes; endogenous in cells; host or cells: monocytes

CCR5 [5] = target: T2, CCR5; conditions: described by others in model systems; read-out: dissociation constant (Kd) of the interaction of CCR5 with gp120; cited from earlier work
CCR5-tropic strains = conditions: cited from earlier work

Compound | suppression of replication of primary HIV isolates (primary HIV isolates) | agonist activity at CCCKR5 (CCCKR5) | inhibition of infection of CD4(+) cells at the virus entry stage [2] | block of env-mediated cell-cell fusion [3] | also measured
SDF-1: chemokine shown to suppress replication of primary HIV isolates | suppress replication |  |  |  | 
c1cc(CN2CCCNCCNCCCNCC2)ccc1CN1CCCNCCNCCCNCC1 [AMD3100] |  |  |  |  | inhibition of infection of susceptible cultures [1]: inhibit infection
RANTES: protein which is regulated upon activation and is normal T-cell expressed and secreted | suppress replication | active at physiologic concentrations | inhibit infection | block env-mediated cell-cell fusion | 
gp120: envelope protein of HIV that is required for viral entry into the target cells |  |  |  |  | Kd (CCR5 [4]): 100 to 1000 nM; Kd (CCR5 [5]): ~1 nM
MIP-1-α: macrophage inflammatory protein, β-chemokine ligand of CCR5 | suppress replication | most potent agonist | inhibit infection | block env-mediated cell-cell fusion | 
Cc1ccc(-c2ccc3c(c2)C=C(C(=O)Nc2ccc(C[N+](C)(C)C4CCOCC4)cc2)CCC3)cc1.[Cl-] [TAK 779] |  |  |  |  | block of entry of CCR5-tropic strains (CCR5-tropic strains): blocks entry
